{
  "source": "patent US20040087498A1",
  "about": "“Modified factor VII” (Novo Nordisk Health Care AG, priority 1991, published 2004)",
  "key": {"[1]": {"tested_on": "fibrin deposition associated with endotoxemia", "assay": "Fibrin deposition in kidneys and lungs in rabbits", "assay_type": "in vivo, rabbit"}, "femoral artery lumen": {"tested_on": "femoral artery lumen", "assay": "Angiographic luminal diameter after balloon angioplasty in atherosclerotic rabbits", "assay_type": "in vivo, rabbit", "protocol": "The test drug delivery for the animals consisted of an initial bolus injection immediately prior to balloon angioplasty, followed by a continuous systemic infusion by osmotic pump via the internal jugular vein. The duration of the drug infusion was 3 days. The control animals received heparin, 150 U/kg IV bolus, prior to balloon angioplasty followed by saline infusion. The DEGR-FVIIa treated animals received a 1 mg/kg bolus injection followed by 50 μg/kg/hr infusion.\nFor the placement of the osmotic pumps for continuous systemic infusion, anesthesia was induced in the animals as described above, and maintained throughout the procedure with additional IM injections of ketamine and Xylazine. Through a midline neck incision, the right internal jugular vein was isolated by blunt dissection and the distal end ligated. A silastic tube (PE-160) was introduced into the right internal jugular vein. A subcutanecus tunnel was created to pass the silastic tube. This tube was connected with the osmotic pump. The osmotic pump was implanted subcutaneously in the back of the rabbit. The right common carotid artery was isolated by blunt dissection and the distal end ligated. Via an arteriotomy, a 5F introducer was placed and advanced to the junction of the aortic arch. Blood was drawn for determination of hemostatic parameters, drugs and cholesterol levels. Twenty milligrams of xylocain was injected intraarterially. A control aortoilibfemoral angiogram was performed via a 5F Berman catheter positioned above the aortic bifurcation using 3-4 ml renographin injected over 3 seconds by hand.\nFollowing balloon dilatation, the angioplasty catheter was withdrawn and the Berman catheter reintroduced to a position 3 cm above the aortic bifurcation. To minimize spasm 20 mg of lidocaine was given intraarterially. A post procedure angiogram was performed as described above. A 1 cm grid was positioned at the level of the femoral artery to calculate the actual diameter. The catheter was then removed. The right carotid artery was ligated with 3-0 silk and the wound sutured by layers. […]"}, "[2]": {"tested_on": "intimal lesion development in femoral arteries", "assay": "Morphometry of intima and media after balloon angioplasty in atherosclerotic rabbits", "assay_type": "in vivo", "details": "rabbit femoral artery, three weeks post-angioplasty; 1 mg/kg bolus + 50 μg/kg/hr for 3 days", "protocol": "DEGR-FVIIa was evaluated for its ability to modulate lesion development following balloon angioplasty in New Zealand White (NZW) atherosclerotic rabbits. This animal model has been well characterized and has proven to be a good model for evaluating anti-thrombotic compounds on vascular lesion development (Gimple et al., Circulation 86:1536-1546 (1992), and Rogosta et al., Circulation 89:1262-1271 (1994)). The animal model used to evaluate DEGR-FVIIa is essentially as described by Ragosta, ibid.\nAnesthesia was induced in rabbits with 5 mg/kg xylazine and 35 mg/kg ketamine by intramuscular injection. The proximal femoral arteries were exposed by cutdown below the inguinal ligament with proximal and distal ligatures. The isolated segments were cannulated with 27 gauge needles. A vent was created by needle puncture. The isolated segments were flushed with saline to clear residual blood, and desiccated by air infused at a rate of 80 ml/min for 8 minutes. Following air-drying, the isolated segments were again flushed with saline and the ligatures removed. Hemostasis was maintained with non-occlusive local pressure. The segments were demarcated with metal clips. Local spasm was treated with Xylocaine 1% locally. The day following surgery, the animals were placed on 1% cholesterol and 6% peanut oil diet for one month until balloon angioplasty. […]"}, "[3]": {"tested_on": "vascular lesion formation", "assay": "Balloon brachial artery model in baboons", "assay_type": "in vivo", "details": "baboon brachial artery balloon model, preliminary studies", "protocol": "Under halothane anesthesia and sterile operating conditions, animals labeled with autologous ^111In-platelets received intravenous infusions of DEGR-FVIIa using the tether system for continuous intravenous administration (initial bolus injection of 1 mg/kg followed by continuous intravenous infusion of 50 μg/kg/hr. The animals received surgical carotid endarterectomy, bilateral brachial artery or bilateral femoral artery Fogarty balloon catheter angioplasties.\nThe DEGR-FVIIa was administered for 7 or 30 days by continuous infusions via venous catheter using the tether system. […]\nFor morphometric analysis of VLF, sections embedded in paraffin and stained for connective tissue components (collagen, elastin) and with hematoxylin-eosin, were evaluated using a Zeiss Photoscope coupled with image analysis system (Thomas Optical Measurement Systems, Columbus, Ga.) consisting of high resolution (580 lines) CCD microscope camera coupled to a high resolution (700 lines) monitor, an IBM 386 chip, 80 MB computer with high resolution graphics digitablet for image acquisition and storage. Quantitative image analysis was performed using a morphometric software driver (Optimas, Bioscan, Inc., Edmonds, Wash.). Arterial cross-sections were analyzed with respect to the total area of neointimal proliferative lesion and corresponding area of arterial media. […]"}},
  "data": [
    {"substance": "DEGR-Factor VIIa: Recombinant human Factor VIIa with its active site derivatized by Dansyl-L-Glu-Gly-Arg-chloromethyl Ketone (DEGRck)", "values": [
      {"measurement": "fibrin deposition in kidneys and lungs", "setting": "[1]", "value": "dose-response effect for blocking fibrin deposition in kidneys and lungs"},
      {"measurement": "Mean MLD", "setting": "femoral artery lumen; 21 Day Measurement", "value": 1.393},
      {"measurement": "Mean MLD", "setting": "femoral artery lumen; Post-PTCA Measurement", "value": 1.323},
      {"measurement": "Mean MLD", "setting": "femoral artery lumen; Pre-PTCA Measurement", "value": 1.283},
      {"measurement": "Intima", "setting": "[2]", "value": 0.438, "unit": "mm2"},
      {"measurement": "Media", "setting": "[2]", "value": 0.329, "unit": "mm2"},
      {"measurement": "benefit of therapy", "setting": "[3]", "value": "no measurable benefit"}
    ]}
  ]
}
